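GI50 is the concentration that inhibits growth by half. The concentration for full growth arrest is given as TGI.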
Key:
Test in all cases: NCI-60 cell line screen, 384-well format
[1] = test system: RPMI-8226 leukemia
[2] = test system: IGROV1 ovarian
[3] = test system: SK-OV-3 ovarian
[4] = test system: BT-549 breast
[5] = test system: MDA-MB-231 breast
[6] = test system: CAKI-1 renal
[7] = test system: SF-268 CNS
[8] = test system: HT29 colon
[9] = test system: UACC-257 melanoma
[10] = test system: SK-MEL-5 melanoma
[11] = test system: A549 NSCLC
[12] = test system: HCT-116 colon
[13] = test system: NCI-H460 NSCLC
[14] = test system: NCI-H522 lung
[15] = test system: OVCAR-4 ovarian
[16] = test system: HCT-15 colon
[17] = test system: HCC-2998 colon
[18] = test system: SF-295 CNS
[19] = test system: OVCAR-8 ovarian
[20] = test system: UACC-62 melanoma
[21] = test system: SW-620 colon
[22] = test system: A498 renal
[23] = test system: RXF 393 renal
[24] = test system: MDA-MB-435 melanoma
[25] = test system: HOP-92 NSCLC
[26] = test system: LOX IMVI melanoma
[27] = test system: HL-60(TB) leukemia
[28] = test system: KM12 colon
[29] = test system: NCI/ADR-RES ovarian
[30] = test system: TK-10 renal
[31] = test system: MCF7 breast
[32] = test system: K-562 leukemia
[33] = test system: 786-0 renal
[34] = test system: U251 glioblastoma
[35] = test system: SNB-19 CNS
[36] = test system: UO-31 renal
[37] = test system: HOP-62 NSCLC
[38] = test system: NCI-H23 lung
[39] = test system: OVCAR-3 ovarian
[40] = test system: PC-3 prostate
[41] = test system: MOLT-4 leukemia
[42] = test system: MDA-MB-468 breast
[43] = test system: MALME-3M melanoma
[44] = test system: OVCAR-5 ovarian
[45] = test system: M14 melanoma
[46] = test system: SN12C renal
[47] = test system: SK-MEL-28 melanoma
[48] = test system: SR leukemia
[49] = test system: SF-539 CNS
[50] = test system: CCRF-CEM leukemia
[51] = test system: SK-MEL-2 melanoma
[52] = test system: NCI-H322M lung
[53] = test system: NCI-H226 lung
[54] = test system: T-47D breast
[55] = test system: ACHN renal
[56] = test system: COLO 205 colon
[57] = test system: DU-145 prostate
[58] = test system: HS 578T breast
[59] = test system: SNB-75 CNS
[60] = test system: EKVX NSCLC

C=CC(=O)N1CCN(c2nc(OC[C@@H]3CCCN3C)nc3c2CCN(c2cccc4cccc(C)c24)C3)C[C@@H]1CC#N
GI50 [1]: 193 nM | TGI [1]: 377 nM | GI50 [2]: 1390 nM | TGI [2]: 2700 nM | GI50 [3]: 540 nM | TGI [3]: 1860 nM | GI50 [4]: 265 nM | TGI [4]: 999 nM | GI50 [5]: 312 nM | TGI [5]: 1270 nM | GI50 [6]: 422 nM | TGI [6]: 1430 nM | GI50 [7]: 495 nM | TGI [7]: 1670 nM | GI50 [8]: 1260 nM | TGI [8]: 2540 nM | GI50 [9]: 833 nM | TGI [9]: 2070 nM | GI50 [10]: 1500 nM | TGI [10]: 2840 nM | GI50 [11]: 1310 nM | TGI [11]: 2610 nM | GI50 [12]: 526 nM | TGI [12]: 1740 nM | GI50 [13]: 754 nM | TGI [13]: 2060 nM | GI50 [14]: 343 nM | TGI [14]: 1390 nM | GI50 [15]: 465 nM | TGI [15]: 1690 nM | GI50 [16]: 1010 nM | TGI [16]: 2190 nM | GI50 [17]: 1230 nM | TGI [17]: 2490 nM | GI50 [18]: 1590 nM | TGI [18]: 2940 nM | GI50 [19]: 1050 nM | TGI [19]: 2240 nM | GI50 [20]: 411 nM | TGI [20]: 1500 nM | GI50 [21]: 1310 nM | TGI [21]: 2620 nM | GI50 [22]: 485 nM | TGI [22]: 1700 nM | GI50 [23]: 189 nM | TGI [23]: 575 nM | GI50 [24]: 1220 nM | TGI [24]: 2480 nM | GI50 [25]: 223 nM | TGI [25]: 687 nM | GI50 [26]: 1590 nM | TGI [26]: 2950 nM | GI50 [27]: 181 nM | TGI [27]: 322 nM | GI50 [28]: 1060 nM | TGI [28]: 2260 nM | GI50 [29]: 1610 nM | TGI [29]: 2970 nM | GI50 [30]: 505 nM | TGI [30]: 1700 nM | GI50 [31]: 834 nM | TGI [31]: 2090 nM | GI50 [32]: 918 nM | TGI [32]: 2130 nM | GI50 [33]: 705 nM | TGI [33]: 1990 nM | GI50 [34]: 1010 nM | TGI [34]: 2200 nM | GI50 [35]: 1570 nM | TGI [35]: 2930 nM | GI50 [36]: 983 nM | TGI [36]: 2150 nM | GI50 [37]: < 10 nM | TGI [37]: 1120 nM | GI50 [38]: < 10 nM | GI50 [39]: 362 nM | TGI [39]: 1360 nM | GI50 [40]: 759 nM | TGI [40]: 1980 nM | GI50 [41]: 160 nM | TGI [41]: 299 nM | GI50 [42]: 367 nM | TGI [42]: 1020 nM | GI50 [43]: 1220 nM | TGI [43]: 2460 nM | GI50 [44]: 1470 nM | TGI [44]: 2800 nM | GI50 [45]: 1270 nM | TGI [45]: 2530 nM | GI50 [46]: 1240 nM | TGI [46]: 2500 nM | GI50 [47]: 1620 nM | TGI [47]: 2980 nM | GI50 [48]: 134 nM | TGI [48]: 267 nM | GI50 [49]: 644 nM | TGI [49]: 1940 nM | GI50 [50]: 133 nM | TGI [50]: 265 nM | GI50 [51]: 194 nM | TGI [51]: 595 nM | GI50 [52]: 1440 nM | TGI [52]: 2760 nM | GI50 [53]: 1160 nM | TGI [53]: 2390 nM | GI50 [54]: 637 nM | TGI [54]: 2010 nM | GI50 [55]: 350 nM | TGI [55]: 1600 nM | GI50 [56]: 1230 nM | TGI [56]: 2490 nM | GI50 [57]: 1400 nM | TGI [57]: 2710 nM

CS(=O)(=O)c1ccc(-c2cnc(N)c(C(=O)Nc3ccccc3)n2)cc1
GI50 [1]: 3120 nM | TGI [1]: > 100000 nM | GI50 [2]: 2900 nM | TGI [2]: > 100000 nM | GI50 [3]: 3680 nM | TGI [3]: 40000 nM | GI50 [4]: 2600 nM | TGI [4]: 11500 nM | GI50 [5]: 62300 nM | TGI [5]: > 100000 nM | GI50 [6]: 5250 nM | TGI [6]: 18400 nM | GI50 [7]: > 100000 nM | TGI [7]: > 100000 nM | GI50 [58]: 4540 nM | TGI [58]: 49900 nM | GI50 [8]: 3760 nM | TGI [8]: > 100000 nM | GI50 [59]: 16600 nM | TGI [59]: > 100000 nM | GI50 [9]: > 100000 nM | TGI [9]: > 100000 nM | GI50 [10]: 16100 nM | TGI [10]: > 100000 nM | GI50 [11]: 5470 nM | TGI [11]: > 100000 nM | GI50 [12]: > 100000 nM | TGI [12]: > 100000 nM | GI50 [60]: > 100000 nM | TGI [60]: > 100000 nM | GI50 [13]: 3730 nM | TGI [13]: > 100000 nM | GI50 [14]: 5610 nM | TGI [14]: > 100000 nM | GI50 [15]: 11900 nM | TGI [15]: 93000 nM | GI50 [16]: 3320 nM | TGI [16]: > 100000 nM | GI50 [17]: 543 nM | TGI [17]: 9370 nM | GI50 [18]: 7750 nM | TGI [18]: > 100000 nM | GI50 [20]: 18900 nM | TGI [20]: > 100000 nM | GI50 [21]: > 100000 nM | TGI [21]: > 100000 nM | GI50 [22]: 2780 nM | TGI [22]: 28600 nM | GI50 [23]: 6560 nM | TGI [23]: 43400 nM | GI50 [24]: > 100000 nM | TGI [24]: > 100000 nM | GI50 [25]: 4580 nM | TGI [25]: > 100000 nM | GI50 [27]: 3340 nM | TGI [27]: 9070 nM | GI50 [28]: 40000 nM | TGI [28]: > 100000 nM | GI50 [29]: > 100000 nM | TGI [29]: > 100000 nM | GI50 [30]: 2750 nM | TGI [30]: 18700 nM | GI50 [31]: 2780 nM | TGI [31]: > 100000 nM | GI50 [32]: 4620 nM | TGI [32]: > 100000 nM | GI50 [33]: 3110 nM | TGI [33]: 65700 nM | GI50 [34]: 6520 nM | TGI [34]: > 100000 nM | GI50 [35]: 28200 nM | TGI [35]: > 100000 nM | GI50 [36]: 6650 nM | TGI [36]: 22100 nM | GI50 [37]: 7720 nM | TGI [37]: > 100000 nM | GI50 [38]: 3020 nM | TGI [38]: 58700 nM | GI50 [39]: 12100 nM | TGI [39]: > 100000 nM | GI50 [40]: 15000 nM | TGI [40]: > 100000 nM | GI50 [41]: 1460 nM | TGI [41]: 2810 nM | GI50 [42]: 2600 nM | TGI [42]: > 100000 nM | GI50 [43]: 37200 nM | TGI [43]: > 100000 nM | GI50 [44]: 33600 nM | TGI [44]: > 100000 nM | GI50 [45]: 5680 nM | TGI [45]: > 100000 nM | GI50 [47]: > 100000 nM | TGI [47]: > 100000 nM | GI50 [48]: 603 nM | TGI [48]: 4570 nM | GI50 [49]: 5270 nM | TGI [49]: > 100000 nM | GI50 [50]: 1510 nM | TGI [50]: 3010 nM | GI50 [51]: 5350 nM | TGI [51]: 13200 nM | GI50 [52]: 14900 nM | TGI [52]: > 100000 nM | GI50 [53]: 46800 nM | TGI [53]: > 100000 nM | GI50 [54]: > 100000 nM | TGI [54]: > 100000 nM | GI50 [55]: 3020 nM | TGI [55]: 16100 nM | GI50 [56]: 29500 nM | TGI [56]: > 100000 nM | GI50 [57]: 4530 nM | TGI [57]: > 100000 nM

NC(=O)NO
GI50 [27]: 81900 nM | GI50 [50]: 76300 nM

From PubChem BioAssay (NCI)
